Source: patent US10292963B2, “Suppression and treatment of viruses” (priority 2013, dated 2019)

Experiment: Additional benefits observed in people taking betaine
Type: in vivo, human
Description: While the main benefit of a person or pet taking vitamin C and betaine in combination is the prevention/suppression of tumors, as mentioned before, additional benefits can be obtained depending upon the levels taken. Betaine is known to improve cardiovascular health, and can benefit people with fatty deposits in the liver. […] After only a few weeks of taking the betaine, cholesterol levels are reduced and the ability to lose weight is improved.

[1] = after only a few weeks of taking the betaine

C[N+](C)(C)CC(=O)[O-] [betaine, trimethylglycine]
tendency to be light headed on getting up after prolonged squatting or kneeling (after a few doses at about one and a half to about three grams per day, especially older people): considerably lessened | ability to lose weight [1]: improved | cholesterol levels [1]: reduced
